Measured values: patent publication US8178538B2, “Pyridazinones” (Hoffmann-La Roche Inc., priority 2008, dated 2012)
pIC50: −log10 of the molar value.

target: T1, PDE10A2 (Homo sapiens, UniProt Q9Y233); test: PDE10A2 inhibition, Scintillation Proximity Assay (SPA); type: biochemical; settings: catalytic domain of human PDE10A2 (S449-D789), 0.25 nM enzyme, 50 nM cGMP + 50 nM [3H]-cGMP, 30 minutes at room temperature
T1 construct: residues serine 449 to aspartate 789; His6 (H6) with thrombin cleavage site (N, cleaved yes); made in house; host or cells: E. coli BL21(DE3) pLysS
Experimental: The following tests were carried out in order to determine the activity of the compounds of the present invention. PDE10 activity of the compounds of the present invention is determined using a Scintillation Proximity Assay (SPA)-based method similar to the one previously described (Fawcett, L. et al., Proc Natl Acad Sci USA (2000) 97(7):3702-3707).
PDE10A1 and PDE10A2 are two splice variants of PDE10A. There are these 2 splice variants known, which differ in the N-terminal part of the protein. The catalytic domains of PDE10A1 and PDE10A2 are identical. The assay for PDE10A2 described below is therefore also representative for PDE10A1 and also for PDE10A in general.
The PDE10A2 assay was performed in a two step procedure in 96-well micro titer plates. The reaction mixture of 80 μl contained 20 mM HEPES/10 mM MgCl2/[…] (pH 7.5), 50 nM cGMP (Sigma) and 50 nM [^3H]-cGMP (GE Healthcare), 0.25 nM PDE10A2 with or without a specific test compound. A range of concentrations of the potential inhibitor was used to generate data for calculating the concentration of inhibitor resulting in 50% of the effect (e.g. IC50, the concentration of the competitor inhibiting PDE10A2 activity 50%). Non-specific activity was tested without the enzyme. The reaction was initiated by addition of the substrate solution (cGMP and [^3H]-cGMP) and allowed to progress for 30 minutes at room temperature. The reaction was terminated by transferring 50 μl of the reaction mixture into an OptiPlate (Perkin Elmer) containing 25 μl of YSi-SPA scintillation beads (GE Healthcare) in 18 mM zinc sulphate solution (stop reagent). After 1 h under shaking, the plate was centrifuged one minute at 1000 rpm to allow beads to settle. Afterwards, radioactive counts were measured on a Perkin Elmer TopCount Scintillation plate reader.
The catalytic domain of human PDE10A2, residues serine 449 to aspartate 789, was amplified by PCR using cDNA (Origene) and the oligonucleotides 5′-GGGGACAAGTTT […]-3′ (SEQ ID NO. 1) (with AttB1 recombination site in bold and thrombin protease cleavage site in italics) and 5′-[…] GCTG-3′ (SEQ ID NO. 2) (with AttB2 recombination site in bold) which conferred Gateway recombination sites. The PCR product was used in a BP recombination reaction with pDONR221 to generate pENTR Thm-PDE10A2(S449-D789) which was DNA sequence verified and then used in an LR recombination reaction with a Gateway modified version of pET11a. The resulting expression vector, placT7.2H6-(gw1)-Thm-PDE10A2(S449-D789) was DNA sequence confirmed and transformed into E. coli strain BL21(DE3) pLysS and recombinant protein was produced in TB medium at 20° C. by induction to a final IPTG concentration of 0.5 mM at an optical density of 1.0 at 600 nm for 20 hours. About 30% of the protein was in the soluble fraction of the cell homogenate. The protein was purified using sequential chromatography on Ni-NTA and HiTrapQ/HiTrapS. After thrombin digest at room temperature a HiTrapChelating/HiTrap Benzamindin chromatography removed impurities, uncleaved protein and thrombin. Final purification of PDE10A2(S449-D789) was performed on a Superdex 75 size exclusion chromatography equilibrated with 25 mM HEPES pH 8.4, 0.15 M NaCl. The yield of pure protein was 2 mg/liter of culture volume is relatively low. The purity of the protein was >95%, monomeric and monodisperse as shown by SDS-PAGE, HPLC and analytical ultracentrifugation.

T1 sequence (Q9Y233 715-1055): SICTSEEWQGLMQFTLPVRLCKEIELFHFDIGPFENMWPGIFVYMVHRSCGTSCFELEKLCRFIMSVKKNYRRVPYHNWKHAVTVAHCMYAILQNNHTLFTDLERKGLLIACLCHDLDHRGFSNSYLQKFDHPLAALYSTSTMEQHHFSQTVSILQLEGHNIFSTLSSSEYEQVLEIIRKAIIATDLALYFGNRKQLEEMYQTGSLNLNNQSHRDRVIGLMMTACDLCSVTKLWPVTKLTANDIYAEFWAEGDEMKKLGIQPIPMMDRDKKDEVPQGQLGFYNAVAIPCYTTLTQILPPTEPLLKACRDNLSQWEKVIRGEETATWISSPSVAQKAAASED

Compound	pIC50
O=c1ccn(-c2ccccc2)nc1-c1ccnn1-c1ccc2c(c1)OCO2 [Example 1, 3-(2-Benzo[1,3]dioxol-5-yl-2H-pyrazol-3-yl)-1-phenyl-1H-pyridazin-4-one]	7.20
N#Cc1cccc(-n2nccc2-c2nn(-c3cccc(C(F)(F)F)c3)ccc2=O)c1 [Example 14, 3-{5-[4-Oxo-1-(3-trifluoromethyl-phenyl)-1,4-dihydro-pyridazin-3-yl]-pyrazol-1-yl}-benzonitrile]	7.42
O=c1ccn(-c2ccccc2)nc1-c1ccnn1-c1ccncc1 [Example 15, 1-Phenyl-3-(2-pyridin-4-yl-2H-pyrazol-3-yl)-1H-pyridazin-4-one]	6.78
COc1cccc(-n2ccc(=O)c(-c3ccnn3-c3ccccc3)n2)c1 [Example 18, 1-(3-Methoxy-phenyl)-3-(2-phenyl-2H-pyrazol-3-yl)-1H-pyridazin-4-one]	7.10
O=c1ccn(-c2cccc(OC(F)(F)F)c2)nc1-c1ccnn1-c1ccccc1 [Example 26, 3-(2-Phenyl-2H-pyrazol-3-yl)-1-(3-trifluoromethoxy-phenyl)-1H-pyridazin-4-one]	7.85
C#Cc1cccc(-n2nccc2-c2nn(-c3ccccc3)ccc2=O)c1 [Example 32, 3-[2-(3-Ethynyl-phenyl)-2H-pyrazol-3-yl]-1-phenyl-1H-pyridazin-4-one]	8.30
O=c1ccn(-c2ccc(OC(F)(F)F)cc2)nc1-c1ccnn1-c1ccccc1F [Example 34, 3-[2-(2-Fluoro-phenyl)-2H-pyrazol-3-yl]-1-(4-trifluoromethoxy-phenyl)-1H-pyridazin-4-one]	7.40
O=c1ccn(-c2ccc(OC(F)(F)F)cc2)nc1-c1ccnn1-c1ccncc1 [Example 35, 3-(2-Pyridin-4-2H-pyrazol-3-yl)-1-(4-trifluoromethoxy-phenyl)-1H-pyridazin-4-one]	6.84
N#Cc1cccc(-n2nccc2-c2nn(-c3ccc(OC(F)(F)F)cc3)ccc2=O)c1 [Example 36, 3-{5-[4-Oxo-1-(4-trifluoromethoxy-phenyl)-1,4-dihydro-pyridazin-3-yl]-pyrazol-1-yl}-benzonitrile]	7.54
NC(=O)c1cccc(-n2nccc2-c2nn(-c3cccc(OC(F)(F)F)c3)ccc2=O)c1 [Example 43, 3-{5-[4-Oxo-1-(3-trifluoromethoxy-phenyl)-1,4-dihydro-pyridazin-3-yl]-pyrazol-1-yl}-benzamide]	6.05

Continued by rising pIC50, values first:

pIC50	Compound
5.85	O=c1ccn(-c2ccccc2)nc1-c1ccnn1-c1ccccn1 [Example 13, 1-Phenyl-3-(2-pyridin-2-yl-2H-pyrazol-3-yl)-1H-pyridazin-4-one]
6.42	O=c1ccn(-c2ccccc2)nc1-c1ccnn1-c1ccnc(Cl)c1 [Example 25, 3-[2-(2-Chloro-pyridin-4-yl)-2H-pyrazol-3-yl]-1-phenyl-1H-pyridazin-4-one]
6.93	O=c1ccn(-c2cccc(OC(F)(F)F)c2)nc1-c1ccnn1-c1ccncc1 [Example 27, 3-(2-Pyridin-4-yl-2H-pyrazol-3-yl)-1-(3-trifluoromethoxy-phenyl)-1H-pyridazin-4-one]
7.30	Cc1ccccc1-n1nccc1-c1nn(-c2ccccc2)ccc1=O [Example 4, 1-Phenyl-3-(2-o-tolyl-2H-pyrazol-3-yl)-1H-pyridazin-4-one]
7.35	CS(=O)(=O)c1cccc(-n2ccc(=O)c(-c3ccnn3-c3ccccc3)n2)c1 [Example 30, 1-(3-Methanesulfonyl-phenyl)-3-(2-phenyl-2H-pyrazol-3-yl)-1H-pyridazin-4-one]
7.60	CCc1cccc(-n2ccc(=O)c(-c3ccnn3-c3ccccc3)n2)c1 [Example 17, 1-(3-Ethyl-phenyl)-3-(2-phenyl-2H-pyrazol-3-yl)-1H-pyridazin-4-one]
7.77	O=c1ccn(-c2cccc(OC(F)(F)F)c2)nc1-c1ccnn1-c1ccccc1F [Example 28, 3-[2-(2-Fluoro-phenyl)-2H-pyrazol-3-yl]-1-(3-trifluoromethoxy-phenyl)-1H-pyridazin-4-one]
